This passage reports TGI and GI50 results from PubChem BioAssay (NCI).

Among the test systems are SK-MEL-2 melanoma; EKVX NSCLC; SF-295 CNS; SF-539 CNS; LOX IMVI melanoma; PC-3 prostate; NCI-H23 lung; M14 melanoma; MDA-N; A549 NSCLC; SK-MEL-28 melanoma; UO-31 renal; HCT-116 colon; NCI-H522 lung; KM12 colon; IGROV1 ovarian; T-47D breast; SR leukemia.
Holding throughout (experiment): NCI tumour cell line growth inhibition, 48 h

Molecules are shown by their SMILES.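 Results reflect a 48-hour exposure of cells in 96-well plates to compound at five concentrations. Abbreviation: GI50, concentration required for 50% inhibition of growth. The concentration for full growth arrest is given as TGI.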

On to `CC#Cc1cc2c(cc1O)CC[C@@H]1[C@@H]2CC[C@]2(C)[C@@H](O)CC[C@@H]12`, for which the TGI with SK-MEL-2 melanoma came out at 15.1 µM; in the assay on EKVX NSCLC it was 26 µM; in the assay on SF-295 CNS it was 2.73 µM; in the assay with SF-539 CNS it was 6.04 µM; in the assay on LOX IMVI melanoma, 19.5 µM; in the assay with PC-3 prostate, 39 µM. Also, the TGI with NCI-H23 lung was 10.6 µM; with M14 melanoma it was 17.7 µM; with MDA-N, 0.547 µM; in the assay with A549 NSCLC, over 37.8 µM; in the assay with SK-MEL-28 melanoma it was 23.7 µM; with UO-31 renal, 39 µM. Also, the TGI was 17.3 µM in the assay with HCT-116 colon; 2.71 µM in the assay on NCI-H522 lung; 14.1 µM in the assay on KM12 colon; 38.1 µM with IGROV1 ovarian; over 89.6 µM in the assay on T-47D breast; 25.7 µM with SR leukemia. Also, the GI50 in the assay with SF-539 CNS was 0.939 µM; in the assay with HCT-116 colon it was 0.48 µM.

In the case of `Nc1nc(Cl)cc(NCC2(CO)CCC(O)C2)n1` (centres undefined), the TGI in the assay with SK-MEL-2 melanoma, with EKVX NSCLC, with SF-295 CNS, in the assay with SF-539 CNS, with LOX IMVI melanoma and with PC-3 prostate was over 100 µM in each case. Besides, the TGI with NCI-H23 lung, with M14 melanoma, in the assay on MDA-N, in the assay on A549 NSCLC, in the assay with SK-MEL-28 melanoma and in the assay on UO-31 renal was over 100 µM throughout. Moreover, the TGI with HCT-116 colon, in the assay with NCI-H522 lung, in the assay on KM12 colon, in the assay with IGROV1 ovarian, in the assay with T-47D breast and in the assay on SR leukemia was over 100 µM throughout.

`C[C@]12CC[C@H](O)C=C1CC[C@@H]1[C@@H]2CC[C@]2(C)C(=N/O)/C(=C/c3ccncc3)C[C@@H]12`: the TGI in the assay with SK-MEL-2 melanoma is 22.6 µM; in the assay with EKVX NSCLC, over 100 µM; with SF-295 CNS it was 39.5 µM; in the assay on SF-539 CNS, 27.3 µM; with LOX IMVI melanoma it was over 100 µM; in the assay on PC-3 prostate, 14.6 µM. Besides, the TGI with NCI-H23 lung was 63.7 µM; in the assay with M14 melanoma, 24.6 µM; with MDA-N, 44 µM; with A549 NSCLC, 29.8 µM; in the assay on SK-MEL-28 melanoma, 60.2 µM; with UO-31 renal it was 20.5 µM. Moreover, the TGI is 18.7 µM with HCT-116 colon; 33.3 µM in the assay with NCI-H522 lung; over 100 µM in the assay on KM12 colon; 81.6 µM in the assay with IGROV1 ovarian; 44.4 µM with T-47D breast; 16.2 µM in the assay with SR leukemia.

Consider `O=C(NCCNCCNCCNC(=O)c1cc(-c2ccccc2)nc2ccccc12)c1cc(-c2ccccc2)nc2ccccc12`, for which the TGI in the assay on SK-MEL-2 melanoma was 3.08 µM; in the assay on EKVX NSCLC, 18 µM; in the assay on SF-295 CNS it was 3.09 µM; in the assay on SF-539 CNS, 3.85 µM; in the assay with LOX IMVI melanoma, 3.03 µM; in the assay with PC-3 prostate it was 14.1 µM. Further, the TGI with NCI-H23 lung stood at 13.1 µM; in the assay with M14 melanoma it was 3.39 µM; with MDA-N, 2.97 µM; in the assay on A549 NSCLC it was 18.6 µM; in the assay with SK-MEL-28 melanoma, 3.08 µM; in the assay with UO-31 renal, 18 µM. Moreover, the TGI with HCT-116 colon came to 3.39 µM; in the assay on NCI-H522 lung it was 3.13 µM; in the assay with KM12 colon, 5.54 µM; in the assay with IGROV1 ovarian, 7.52 µM; with T-47D breast, 7.66 µM; with SR leukemia it was 5.01 µM.
